# Assays:
# MDR1 (P-gp, ABCB1) [1] = target: T1, MDR1 (P-gp, ABCB1) (Homo sapiens, UniProt P08183); assay: Activity at human MDR1 expressed in MDCK2 cells assessed as basolateral to apical mass balance at 3 uM by liquid scintillation counting analysis; format: ADME, cell-based, MDCK-II; conditions: MDCK-MDR1, read-out: Activity
# CYP2D6 = CYP2D6 (Homo sapiens, UniProt P10635); assay: Inhibition of CYP2D6 in human liver microsomes using bufuralol as substrate at 100 uM preincubated for 20 mins with substrate prior to initiation of reaction with NADPH by HPLC analysis; format: ADME; conditions: probe bufuralol
# [2] = target: T2, UDP-glucuronosyltransferase 1A1 (Homo sapiens, UniProt P22309); assay: (§1) Drug metabolism assessed as human recombinant UGT1A1-mediated DTG glucuronide M2 ((2S,3S,4S,5R,6S)-6-((4R,12aS)-9-(2,4-difluorobenzylcarbamoyl)-4-methyl-6,8-dioxo-3,4,6,8,12,12a-hexahydro-2H-[1,3]oxazino[3,2-d]pyrido[1,2-a]pyrazin-7-yloxy)-3,4,5-trihydroxytetrahydro-2H-pyran-2-carboxylic acid) formation after 120 mins measured per mg of protein by radio-HPLC analysis; format: ADME; conditions: recombinant enzyme
# T2 sequence (P22309 whole entry): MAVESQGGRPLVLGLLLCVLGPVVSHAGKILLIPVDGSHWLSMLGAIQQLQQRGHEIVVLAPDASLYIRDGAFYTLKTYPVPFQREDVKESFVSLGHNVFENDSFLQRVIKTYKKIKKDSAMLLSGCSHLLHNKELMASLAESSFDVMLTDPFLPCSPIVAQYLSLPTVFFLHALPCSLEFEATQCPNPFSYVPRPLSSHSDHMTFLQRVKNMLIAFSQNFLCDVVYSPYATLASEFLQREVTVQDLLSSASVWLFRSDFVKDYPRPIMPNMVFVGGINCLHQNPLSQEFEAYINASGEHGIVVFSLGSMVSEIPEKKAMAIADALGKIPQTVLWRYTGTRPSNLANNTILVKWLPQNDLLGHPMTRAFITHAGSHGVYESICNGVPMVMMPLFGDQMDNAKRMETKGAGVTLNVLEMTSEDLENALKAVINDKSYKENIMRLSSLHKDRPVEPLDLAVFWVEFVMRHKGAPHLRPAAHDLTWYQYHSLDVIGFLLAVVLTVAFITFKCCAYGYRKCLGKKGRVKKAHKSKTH
# MDR1 (P-gp, ABCB1) [3] = target: T1, MDR1 (P-gp, ABCB1); assay: Activity at human MDR1 expressed in MDCK2 cells assessed as basolateral to apical mass balance at 3 uM by liquid scintillation counting analysis in presence of 3 uM P-gp and BCRP inhibitor GF120918; format: ADME, cell-based, MDCK-II; conditions: with GF120918 (P-gp and BCRP inhibitor), read-out: Activity
# BCRP (ABCG2) = target: T3, BCRP (ABCG2) (Homo sapiens, UniProt Q9UNQ0); assay: Activity at human BCRP expressed in MDCK2 cells assessed as basolateral to apical mass balance at 3 uM by liquid scintillation counting analysis in presence of 3 uM P-gp and BCRP inhibitor GF120918; format: ADME, cell-based, MDCK-II; conditions: with GF120918 (P-gp and BCRP inhibitor), read-out: Activity
# T3 sequence (Q9UNQ0 whole entry): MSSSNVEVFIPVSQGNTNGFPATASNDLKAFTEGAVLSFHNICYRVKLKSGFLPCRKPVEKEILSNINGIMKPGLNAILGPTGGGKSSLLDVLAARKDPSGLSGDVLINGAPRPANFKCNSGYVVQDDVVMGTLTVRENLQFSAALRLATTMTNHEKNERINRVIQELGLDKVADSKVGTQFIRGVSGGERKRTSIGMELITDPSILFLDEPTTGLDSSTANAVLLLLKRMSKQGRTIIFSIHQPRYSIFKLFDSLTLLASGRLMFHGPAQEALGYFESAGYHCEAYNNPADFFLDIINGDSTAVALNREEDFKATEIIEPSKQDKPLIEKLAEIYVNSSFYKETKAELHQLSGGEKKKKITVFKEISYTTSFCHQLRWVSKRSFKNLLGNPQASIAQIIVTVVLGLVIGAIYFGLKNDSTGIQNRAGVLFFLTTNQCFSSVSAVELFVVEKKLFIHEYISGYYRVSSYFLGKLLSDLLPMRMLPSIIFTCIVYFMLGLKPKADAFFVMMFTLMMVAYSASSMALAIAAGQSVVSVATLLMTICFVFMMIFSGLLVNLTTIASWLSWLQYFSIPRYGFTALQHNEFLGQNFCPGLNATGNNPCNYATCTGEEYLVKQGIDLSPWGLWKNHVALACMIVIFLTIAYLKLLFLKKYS
# [4] = target: T2, UDP-glucuronosyltransferase 1A1; assay: as §1, with “metabolism in UDPGA-fortified human liver microsomes” for “metabolism”, “as” for “as human recombinant”; format: ADME
# Cytochrome P450 2C9 [5] = target: T4, Cytochrome P450 2C9 (Homo sapiens, UniProt P11712); assay: Metabolism-dependent inhibition of CYP2C9 in human liver microsomes using diclofenac as substrate preincubated for 20 mins with NADPH prior to initiation of reaction with probe substrate by HPLC analysis; format: ADME
# Cytochrome P450 2C9 [6] = target: T4, Cytochrome P450 2C9; assay: Inhibition of CYP2C9 in human liver microsomes using diclofenac as substrate preincubated for 20 mins with substrate prior to initiation of reaction with NADPH by HPLC analysis; format: ADME
# Cytochrome P450 2C9 [7] = target: T4, Cytochrome P450 2C9; assay: Drug metabolism in supersomes expressing human recombinant CYP2C9 assessed as NADPH-fortified enzyme-mediated metabolite formation at 5 uM after 120 mins by radio HPLC analysis; format: ADME; conditions: 2 h
# Cytochrome P450 1A2 = target: T5, Cytochrome P450 1A2 (Homo sapiens, UniProt P05177); assay: Drug metabolism in supersomes expressing human recombinant CYP1A2 assessed as NADPH-fortified enzyme-mediated metabolite formation at 5 uM after 120 mins by radio HPLC analysis; format: ADME; conditions: 2 h
# T5 sequence (P05177 whole entry): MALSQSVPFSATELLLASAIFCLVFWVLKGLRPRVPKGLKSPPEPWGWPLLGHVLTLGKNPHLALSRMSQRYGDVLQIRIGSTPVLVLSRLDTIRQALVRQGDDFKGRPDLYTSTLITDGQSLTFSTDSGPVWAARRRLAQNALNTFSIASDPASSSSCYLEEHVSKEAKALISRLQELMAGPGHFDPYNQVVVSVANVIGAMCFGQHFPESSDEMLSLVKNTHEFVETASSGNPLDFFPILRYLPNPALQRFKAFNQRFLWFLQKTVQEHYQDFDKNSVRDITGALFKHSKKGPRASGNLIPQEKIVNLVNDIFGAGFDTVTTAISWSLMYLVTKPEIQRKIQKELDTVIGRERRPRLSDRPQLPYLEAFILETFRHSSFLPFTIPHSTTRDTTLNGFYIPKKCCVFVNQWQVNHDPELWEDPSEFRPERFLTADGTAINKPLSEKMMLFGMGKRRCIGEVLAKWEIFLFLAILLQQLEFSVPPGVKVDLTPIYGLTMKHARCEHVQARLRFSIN
# [8] = target: Solute carrier family 22 member 1 (Homo sapiens, UniProt O15245); assay: Inhibition of human OCT1 expressed in HEK293 cells using [14C]metformin as substrate at 10 uM after 10 mins by liquid scintillation counting analysis; format: ADME, cell-based; conditions: hek293, 10 min
# [9] = target: Solute carrier organic anion transporter family member 1B1 (Homo sapiens, UniProt Q9Y6L6); assay: Inhibition of human OATP1B1 expressed in CHO cells using [3H]estradiol 17beta-D-glucuronide as substrate by liquid scintillation counting analysis; format: ADME, cell-based
# CYP3A4 = CYP3A4 (Homo sapiens, UniProt P08684); assay: Inhibition of CYP3A4 in human liver microsomes using nifedipine as substrate at 100 uM preincubated for 20 mins with substrate prior to initiation of reaction with NADPH by HPLC analysis; format: ADME; conditions: probe nifedipine
# Chain of CYP3A4 (P08684 whole entry): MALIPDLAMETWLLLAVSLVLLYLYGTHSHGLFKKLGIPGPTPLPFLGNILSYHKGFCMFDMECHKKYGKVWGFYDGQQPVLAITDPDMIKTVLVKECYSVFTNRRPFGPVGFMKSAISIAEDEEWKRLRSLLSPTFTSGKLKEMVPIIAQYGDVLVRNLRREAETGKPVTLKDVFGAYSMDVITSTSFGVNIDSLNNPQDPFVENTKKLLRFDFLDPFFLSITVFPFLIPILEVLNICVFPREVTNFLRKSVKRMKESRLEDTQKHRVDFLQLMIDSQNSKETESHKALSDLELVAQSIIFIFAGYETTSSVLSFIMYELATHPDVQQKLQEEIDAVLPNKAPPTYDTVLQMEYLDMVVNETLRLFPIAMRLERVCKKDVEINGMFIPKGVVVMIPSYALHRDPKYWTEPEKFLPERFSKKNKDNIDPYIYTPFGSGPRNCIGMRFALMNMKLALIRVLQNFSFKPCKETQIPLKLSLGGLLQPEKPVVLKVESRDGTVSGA
# T4 sequence (P11712 whole entry): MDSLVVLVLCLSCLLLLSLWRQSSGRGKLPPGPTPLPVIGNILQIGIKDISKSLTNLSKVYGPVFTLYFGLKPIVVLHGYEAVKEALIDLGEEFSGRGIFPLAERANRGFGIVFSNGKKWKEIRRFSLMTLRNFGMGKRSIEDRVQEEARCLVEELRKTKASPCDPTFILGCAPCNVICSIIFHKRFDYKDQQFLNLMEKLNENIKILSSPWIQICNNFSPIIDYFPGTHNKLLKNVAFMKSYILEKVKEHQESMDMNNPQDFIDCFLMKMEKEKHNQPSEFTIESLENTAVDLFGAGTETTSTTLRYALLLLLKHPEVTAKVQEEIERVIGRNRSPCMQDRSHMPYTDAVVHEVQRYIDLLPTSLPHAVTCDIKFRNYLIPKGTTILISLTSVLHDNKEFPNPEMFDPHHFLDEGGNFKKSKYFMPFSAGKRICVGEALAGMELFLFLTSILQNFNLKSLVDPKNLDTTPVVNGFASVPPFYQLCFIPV
# T1 sequence (P08183 whole entry): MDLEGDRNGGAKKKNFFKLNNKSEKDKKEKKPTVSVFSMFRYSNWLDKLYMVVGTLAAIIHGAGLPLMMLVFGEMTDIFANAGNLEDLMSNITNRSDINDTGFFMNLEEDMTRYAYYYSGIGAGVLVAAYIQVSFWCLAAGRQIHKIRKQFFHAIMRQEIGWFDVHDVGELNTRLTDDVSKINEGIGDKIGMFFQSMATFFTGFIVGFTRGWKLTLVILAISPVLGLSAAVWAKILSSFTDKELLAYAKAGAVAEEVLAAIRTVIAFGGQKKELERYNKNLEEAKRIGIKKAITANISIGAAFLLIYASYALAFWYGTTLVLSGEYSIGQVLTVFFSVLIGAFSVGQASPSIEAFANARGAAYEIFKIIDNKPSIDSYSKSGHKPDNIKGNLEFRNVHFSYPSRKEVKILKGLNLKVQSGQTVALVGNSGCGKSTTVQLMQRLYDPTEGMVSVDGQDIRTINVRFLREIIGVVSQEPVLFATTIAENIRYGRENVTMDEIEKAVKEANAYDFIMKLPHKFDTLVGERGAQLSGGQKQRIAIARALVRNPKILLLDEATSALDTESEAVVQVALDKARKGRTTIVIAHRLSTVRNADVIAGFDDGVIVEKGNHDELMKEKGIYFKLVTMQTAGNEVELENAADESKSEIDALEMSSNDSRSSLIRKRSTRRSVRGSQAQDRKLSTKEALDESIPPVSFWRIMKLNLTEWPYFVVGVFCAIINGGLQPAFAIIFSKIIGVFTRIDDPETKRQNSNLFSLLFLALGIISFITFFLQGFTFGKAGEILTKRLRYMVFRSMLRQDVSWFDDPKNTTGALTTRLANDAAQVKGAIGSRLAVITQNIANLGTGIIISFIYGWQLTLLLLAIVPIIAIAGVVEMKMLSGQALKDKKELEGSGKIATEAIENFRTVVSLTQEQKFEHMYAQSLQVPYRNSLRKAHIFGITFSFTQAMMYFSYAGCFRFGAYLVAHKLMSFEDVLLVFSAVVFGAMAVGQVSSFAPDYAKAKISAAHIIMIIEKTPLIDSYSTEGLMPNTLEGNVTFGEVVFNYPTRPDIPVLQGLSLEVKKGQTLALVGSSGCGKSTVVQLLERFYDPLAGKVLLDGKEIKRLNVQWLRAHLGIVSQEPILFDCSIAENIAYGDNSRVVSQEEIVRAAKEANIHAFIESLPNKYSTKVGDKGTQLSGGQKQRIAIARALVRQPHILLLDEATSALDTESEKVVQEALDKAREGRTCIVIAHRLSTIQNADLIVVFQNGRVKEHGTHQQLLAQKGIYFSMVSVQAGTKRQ
# Chain of Solute carrier organic anion transporter family member 1B1 (Q9Y6L6 whole entry): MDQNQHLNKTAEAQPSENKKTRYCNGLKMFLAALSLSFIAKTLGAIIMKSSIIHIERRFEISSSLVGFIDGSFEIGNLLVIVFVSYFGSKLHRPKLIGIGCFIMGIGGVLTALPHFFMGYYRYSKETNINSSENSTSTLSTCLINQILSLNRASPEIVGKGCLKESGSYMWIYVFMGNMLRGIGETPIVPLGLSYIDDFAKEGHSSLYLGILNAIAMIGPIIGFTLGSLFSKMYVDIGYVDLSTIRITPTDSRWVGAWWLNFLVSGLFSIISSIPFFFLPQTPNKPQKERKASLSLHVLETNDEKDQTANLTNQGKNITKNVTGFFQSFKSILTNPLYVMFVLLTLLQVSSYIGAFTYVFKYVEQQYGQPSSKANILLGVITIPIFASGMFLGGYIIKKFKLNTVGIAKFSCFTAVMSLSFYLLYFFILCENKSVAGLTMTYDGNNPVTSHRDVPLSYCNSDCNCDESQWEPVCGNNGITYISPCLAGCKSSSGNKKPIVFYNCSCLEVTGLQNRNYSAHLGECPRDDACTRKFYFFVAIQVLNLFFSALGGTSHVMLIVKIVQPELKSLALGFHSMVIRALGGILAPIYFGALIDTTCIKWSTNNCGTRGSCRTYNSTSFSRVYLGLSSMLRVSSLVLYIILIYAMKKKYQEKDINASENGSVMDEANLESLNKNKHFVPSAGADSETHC
# Chain of Solute carrier family 22 member 1 (O15245 whole entry): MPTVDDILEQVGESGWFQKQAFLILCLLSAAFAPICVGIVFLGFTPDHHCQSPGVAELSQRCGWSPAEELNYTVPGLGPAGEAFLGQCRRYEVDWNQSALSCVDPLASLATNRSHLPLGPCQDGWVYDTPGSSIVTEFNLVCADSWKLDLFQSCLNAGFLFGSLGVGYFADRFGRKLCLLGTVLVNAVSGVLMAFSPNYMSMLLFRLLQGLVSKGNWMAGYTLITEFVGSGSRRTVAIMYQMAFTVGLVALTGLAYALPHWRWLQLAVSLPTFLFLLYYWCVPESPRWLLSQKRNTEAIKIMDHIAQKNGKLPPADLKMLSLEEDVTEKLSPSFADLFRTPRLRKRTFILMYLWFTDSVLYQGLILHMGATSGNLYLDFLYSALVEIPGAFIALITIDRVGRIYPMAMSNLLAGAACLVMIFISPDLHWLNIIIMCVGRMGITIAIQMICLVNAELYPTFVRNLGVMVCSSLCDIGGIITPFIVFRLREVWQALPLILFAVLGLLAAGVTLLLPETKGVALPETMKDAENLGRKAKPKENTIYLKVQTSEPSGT
# Chain of CYP2D6 (P10635 whole entry): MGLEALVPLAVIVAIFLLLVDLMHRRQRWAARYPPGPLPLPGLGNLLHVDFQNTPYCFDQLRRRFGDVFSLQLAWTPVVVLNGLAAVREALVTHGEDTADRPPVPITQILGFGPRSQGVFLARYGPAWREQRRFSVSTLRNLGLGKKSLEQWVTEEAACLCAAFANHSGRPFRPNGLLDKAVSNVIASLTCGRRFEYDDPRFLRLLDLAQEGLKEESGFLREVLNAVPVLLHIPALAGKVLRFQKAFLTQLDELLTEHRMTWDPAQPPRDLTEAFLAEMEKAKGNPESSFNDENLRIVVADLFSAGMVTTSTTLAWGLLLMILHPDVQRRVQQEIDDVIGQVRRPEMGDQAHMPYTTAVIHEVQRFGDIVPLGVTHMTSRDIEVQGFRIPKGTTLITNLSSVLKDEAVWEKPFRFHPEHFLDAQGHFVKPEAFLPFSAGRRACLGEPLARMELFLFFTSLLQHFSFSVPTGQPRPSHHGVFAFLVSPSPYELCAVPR
structure (smiles),measurement,setting,value
C[C@@H]1CCO[C@H]2Cn3cc(C(=O)NCc4ccc(F)cc4F)c(=O)c(O)c3C(=O)N12 [DOLUTEGRAVIR],recovery at 3 µM,"MDR1 (P-gp, ABCB1) [1]",84%
same,inhibition at 100 µM,CYP2D6,20%
same,Vmax,[2],67 pmol/min
same,recovery at 3 µM,"MDR1 (P-gp, ABCB1) [3]",75%
same,recovery at 3 µM,BCRP (ABCG2),76%
same,Vmax,[4],409 pmol/min
same,IC50,Cytochrome P450 2C9 [5],> 100 µM
same,IC50,Cytochrome P450 2C9 [6],> 100 µM
same,Drug metabolism,Cytochrome P450 2C9 [7],metabolite_not_detected
same,Drug metabolism,Cytochrome P450 1A2,metabolite_not_detected
same,inhibition (INH),[8],22%
same,IC50,[9],> 100 µM
same,inhibition at 100 µM,CYP3A4,20%

# Source: ChEMBL document CHEMBL3526034 (Drug Metab Dispos, 2013)
